From patent US6759547B1, “5,6,7,8-tetrahydronaphthalen-2-yl 2,6-difluoroheptatrienoic acid derivatives having serum glucose reducing activity” (Allergan, Inc., priority 2003, dated 2004)

Tests used:
RXRα [1] = biological target: T1, RXRα (Homo sapiens, UniProt P19793); experiment: holoreceptor transactivation assay, RXRα; assay type: cell-based; settings: for RXR Trans. efficacy α: efficacy as a percentage compared to the standard compound; for EC50: holoreceptor assay, read-out: RXR Trans. EC50 α
T1 construct: expressed in transfected cells
T1 sequence (P19793 1-462): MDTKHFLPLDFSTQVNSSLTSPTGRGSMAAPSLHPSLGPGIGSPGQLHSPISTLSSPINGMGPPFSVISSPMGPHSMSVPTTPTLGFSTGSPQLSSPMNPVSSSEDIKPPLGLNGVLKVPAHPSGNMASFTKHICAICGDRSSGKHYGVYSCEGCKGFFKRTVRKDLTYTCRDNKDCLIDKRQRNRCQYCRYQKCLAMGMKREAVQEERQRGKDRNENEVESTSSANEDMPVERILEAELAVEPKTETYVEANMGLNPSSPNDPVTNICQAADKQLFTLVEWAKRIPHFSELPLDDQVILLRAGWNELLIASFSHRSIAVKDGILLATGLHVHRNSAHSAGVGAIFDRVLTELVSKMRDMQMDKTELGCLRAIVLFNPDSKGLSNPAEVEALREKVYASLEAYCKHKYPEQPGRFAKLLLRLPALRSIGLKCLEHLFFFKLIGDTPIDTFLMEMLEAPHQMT
Description: (§1) Particularly, the transactivation data pertaining to activation of the RAR receptors were obtained in the chimeric assay, and the transactivation data pertaining to the activation of RXR receptors were obtained in the holoreceptor assay.

RXRβ [2] = biological target: T2, RXRβ (Homo sapiens, UniProt P28702); experiment: holoreceptor transactivation assay, RXRβ; assay type: cell-based; settings: for RXR Trans. efficacy β: efficacy as a percentage compared to the standard compound; for EC50: holoreceptor assay, read-out: RXR Trans. EC50 β; for efficacy in activating RXRβ compared with RXRα and RXRγ: transactivation, comparison of subtypes
T2 construct: expressed in transfected cells
T2 sequence (P28702 1-533): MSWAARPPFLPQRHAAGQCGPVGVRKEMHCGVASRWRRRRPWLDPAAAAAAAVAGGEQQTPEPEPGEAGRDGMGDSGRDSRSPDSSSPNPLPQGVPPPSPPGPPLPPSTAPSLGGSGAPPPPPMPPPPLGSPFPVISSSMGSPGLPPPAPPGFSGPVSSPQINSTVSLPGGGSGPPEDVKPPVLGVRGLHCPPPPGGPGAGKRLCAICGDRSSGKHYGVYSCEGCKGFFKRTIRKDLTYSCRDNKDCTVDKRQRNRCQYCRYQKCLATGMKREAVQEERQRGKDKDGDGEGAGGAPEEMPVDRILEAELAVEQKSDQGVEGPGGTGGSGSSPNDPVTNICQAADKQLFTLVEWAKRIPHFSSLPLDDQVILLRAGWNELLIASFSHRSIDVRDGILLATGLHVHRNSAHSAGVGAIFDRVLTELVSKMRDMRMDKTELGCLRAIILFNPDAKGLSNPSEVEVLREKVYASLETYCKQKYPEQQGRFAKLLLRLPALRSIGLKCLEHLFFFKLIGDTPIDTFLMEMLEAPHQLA
Description: as §1

RARα = biological target: T3, RARα (Homo sapiens, UniProt P10276); experiment: ligand binding assay, RARα; settings: read-out: RAR Bind. K1 α
T3 sequence (P10276 1-462): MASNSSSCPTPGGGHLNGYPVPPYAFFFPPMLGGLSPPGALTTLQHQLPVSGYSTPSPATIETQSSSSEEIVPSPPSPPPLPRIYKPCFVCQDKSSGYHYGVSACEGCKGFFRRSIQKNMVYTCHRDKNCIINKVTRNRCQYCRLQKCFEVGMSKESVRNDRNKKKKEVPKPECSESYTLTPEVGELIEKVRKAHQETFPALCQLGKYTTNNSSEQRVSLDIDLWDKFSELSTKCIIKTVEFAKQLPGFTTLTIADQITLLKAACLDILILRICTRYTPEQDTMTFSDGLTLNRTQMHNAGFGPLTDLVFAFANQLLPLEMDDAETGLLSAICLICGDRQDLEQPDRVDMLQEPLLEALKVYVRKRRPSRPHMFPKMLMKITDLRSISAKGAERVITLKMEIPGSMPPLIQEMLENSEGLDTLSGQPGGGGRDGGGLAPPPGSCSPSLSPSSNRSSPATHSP
Description: (§2) The results obtained in this assay are expressed in EC50 numbers, as they are also in the chimeric receptor transactivation assay. The results of the ligand binding assay are expressed in Ki numbers.

RARβ = biological target: T4, RARβ (Homo sapiens, UniProt P10826); experiment: ligand binding assay, RARβ; settings: read-out: RAR Bind. K1 β
T4 sequence (P10826 1-455): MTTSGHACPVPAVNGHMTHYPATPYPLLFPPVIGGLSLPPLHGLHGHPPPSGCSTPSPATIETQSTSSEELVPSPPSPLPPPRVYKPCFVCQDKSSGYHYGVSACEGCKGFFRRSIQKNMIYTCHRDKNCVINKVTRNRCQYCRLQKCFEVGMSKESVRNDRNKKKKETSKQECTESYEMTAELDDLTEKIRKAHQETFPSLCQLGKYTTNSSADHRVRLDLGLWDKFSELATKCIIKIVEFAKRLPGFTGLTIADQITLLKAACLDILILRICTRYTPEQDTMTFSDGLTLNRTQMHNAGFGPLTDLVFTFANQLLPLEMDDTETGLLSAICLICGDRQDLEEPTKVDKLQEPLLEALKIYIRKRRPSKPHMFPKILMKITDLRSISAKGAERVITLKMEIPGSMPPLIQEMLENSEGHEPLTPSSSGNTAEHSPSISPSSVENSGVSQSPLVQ
Description: as §2

RARγ = biological target: T5, RARγ (Homo sapiens, UniProt P13631); experiment: ligand binding assay, RARγ; settings: read-out: RAR Bind. K1 γ
T5 sequence (P13631 1-454): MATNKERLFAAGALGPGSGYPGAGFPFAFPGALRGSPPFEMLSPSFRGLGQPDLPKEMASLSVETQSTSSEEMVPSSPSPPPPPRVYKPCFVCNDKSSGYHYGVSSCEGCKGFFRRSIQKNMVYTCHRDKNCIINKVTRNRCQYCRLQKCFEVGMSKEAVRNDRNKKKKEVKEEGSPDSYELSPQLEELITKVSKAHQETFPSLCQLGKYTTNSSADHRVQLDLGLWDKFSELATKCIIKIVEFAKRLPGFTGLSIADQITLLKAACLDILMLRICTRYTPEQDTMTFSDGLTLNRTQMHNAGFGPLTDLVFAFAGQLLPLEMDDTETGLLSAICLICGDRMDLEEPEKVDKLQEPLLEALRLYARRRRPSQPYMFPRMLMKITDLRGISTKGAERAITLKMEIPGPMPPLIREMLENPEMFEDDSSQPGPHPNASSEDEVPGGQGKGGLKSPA
Description: as §2

RXRα [3] = biological target: T1, RXRα; experiment: ligand binding assay, RXRα; settings: read-out: RXR Bind K1 α
Description: as §2

RXRβ [4] = biological target: T2, RXRβ; experiment: ligand binding assay, RXRβ; settings: read-out: RXR Bind K1 β
Description: The results of the ligand binding assay are expressed in Ki numbers.

Row | Structure (SMILES) | RXR Trans. efficacy α (RXRα [1]) [%] | EC50 (RXRα [1]) [nM] | RXR Trans. efficacy β (RXRβ [2]) [%] | EC50 (RXRβ [2]) [nM] | efficacy in activating RXRβ compared with RXRα and RXRγ (RXRβ [2]) | Ki (RARα) [nM] | Ki (RARβ) [nM] | Ki (RARγ) [nM] | Ki (RXRα [3]) [nM] | Ki (RXRβ [4]) [nM]
1 | CCCOc1cc2c(cc1\C(C)=C(F)/C=C/C(C)=C(\F)C(=O)O)C(C)(C)CCC2(C)C [Compound 11, (2Z,4E,6E)-2,6-Difluoro-3-methyl-7-(5,5,8,8-tetramethyl-3-propoxy-5,6,7,8-tetrahydro-naphthalen-2-yl)-octa-2,4,6-trienoic acid] | 7 | 3 | 24 | 43 | significantly more effective in activating the RXRβ subtype | 1800 | 1720 | 250 | 11 | 65
2 | CC/C(=C(F)/C=C/C(C)=C(\F)C(=O)O)c1cc2c(cc1OCOC)C(C)(C)CCC2(C)C [Compound 21, (2Z,4E,6E)-2,6-Difluoro-7-(3-methoxymethoxy-5,5,8,8-tetramethyl-5,6,7,8-tetrahydro-naphthalen-2-yl)-3-methyl-nona-2,4,6-trienoic acid] | 41 | 9 | 45 | 91 | significantly more effective in activating the RXRβ subtype | 260 | 590 | 940 | 12 | 60
3 | CCOc1cc2c(cc1\C(CC)=C(F)/C=C/C(C)=C(\F)C(=O)O)C(C)(C)CCC2(C)C [Compound 27, (2Z,4E,6E)-7-(3-Ethoxy-5,5,8,8-tetramethyl-5,6,7,8-tetrahydro-naphthalen-2-yl)-2,6-difluoro-3-methyl-nona-2,4,6-trienoic acid] | 30 | 4 | 43 | 32 | significantly more effective in activating the RXRβ subtype | 930 | 1800 | 6400 | 5 | 20
